Earlier results on 11 compounds are cited in US9370164B2, “Breeding, production, processing and use of specialty Cannabis” (Biotech Institute LLC, priority 2013, dated 2016).

Read-outs that look alike come from different tables or passages of the source.

For data set [1] the following is noted: for Pharmacological Action: Analgesic / Pharmacological Action: Anti-spasmodic: indications: MS; for Pharmacological Action: Analgesic: Post-operative pain, Migraine, Neuropathic pain, Sciatica; for Pharmacological Action: Anti-inflammatory: indications: Pain, Chron's, Arthritis; for Pharmacological Action: Anti-inflammatory / Pharmacological Action: Immunosuppressive / Pharmacological Action: Neuroprotective: MS; for Pharmacological Action: Anti-emetic: indication: CIE; for Pharmacological Action: Antidepressant: indication: Depression; for Pharmacological Action: Intestinal Anti-prokinetic: indication: Diarrhea; for Pharmacological Action: Anti-epileptic: indication: Epilepsy; for Pharmacological Action: Vasorelaxant: indication: Glaucoma; for Pharmacological Action: Sedative: indication: Sleep disorders; for Pharmacological Action: Immunosuppressive: indications: Allergies, RA, IBS; for Pharmacological Action: Anti-spasmodic: Spinal cord injury, Cerebral palsy; for Pharmacological Action: Anxiolytic: indications: Panic Disorder, Social Anxiety Disorder, Generalized Anxiety Disorder, PTSD; for Pharmacological Action: Neuroprotective: indications: Parkinson's, Alzheimer's, Stroke; for Pharmacological Action: Muscle relaxant: indication: MS; for Pharmacological Action: Bronchodialator: indications: Asthma, Sleep-related breathing disorders.

For data set [2] the following is noted: for Proposed mechanism, Analgesic: post-operative pain.

Regarding `CCCCCc1cc(O)c2c(c1)OC(C)(CCC=C(C)C)C=C2` (stereo not drawn) [CBC], in data set [1], the “Pharmacological Action: Analgesic” value is on record as “✓” and the “Pharmacological Action: Anti-inflammatory” value is recorded as “✓”.
For the compound `C=C(C)[C@@H]1CCC(C)=C[C@H]1c1c(O)cc(CCCCC)cc1O` [CBD], in data set [1], the “Pharmacological Action: Anti-emetic” value is listed as “✓”, the “Pharmacological Action: Antidepressant” value is “✓”, the “Pharmacological Action: Intestinal Anti-prokinetic” value was “✓” and the “Pharmacological Action: Anti-epileptic” value is on record as “✓”. For the same compound, in data set [1], the “Pharmacological Action: Vasorelaxant” value is “✓”, the “Pharmacological Action: Sedative” value is listed as “✓”, the “Pharmacological Action: Immunosuppressive” value is on record as “✓” and the “Pharmacological Action: Analgesic” value is “✓”. Moreover, in data set [1], the “Pharmacological Action: Anti-spasmodic” value was “✓”, the “Pharmacological Action: Anti-inflammatory” value is reported as “✓”, the “Pharmacological Action: Anxiolytic” value is on record as “✓” and the “Pharmacological Action: Neuroprotective” value is reported as “✓”. In addition, in data set [2], the “Proposed mechanism, Analgesic” value is “(+)TRPA1”; the “Proposed mechanism, Anti-epileptic” value is “(+)5HT1A”; the “Proposed mechanism, Vasorelaxant” value was “(+)PPARg”. The “Proposed mechanism, Anti-psychotic” value in data set [2] (Anti-psychotic) was “(+)TRPV1”. The “Proposed mechanism, Anxiolytic” value in data set [2] (panic disorder) is “(+)5HT1A”. The “Proposed mechanism, Anxiolytic” value in data set [2] (social anxiety disorder) is “(+)CB1”. In addition, in data set [2] (Intestinal Anti-prokinetic), the “Proposed mechanism, Intestinal Anti-prokinetic” value was “(−)Ca1”.
With `CCCCCc1cc(O)c(C/C=C(\C)CCC=C(C)C)c(O)c1` [CBG], in data set [1], the “Pharmacological Action: Antidepressant” value is given as “✓”, the “Pharmacological Action: Anti-epileptic” value is “✓”, the “Pharmacological Action: Muscle relaxant” value is on record as “✓” and the “Pharmacological Action: Analgesic” value is on record as “✓”. Moreover, in data set [1], the “Pharmacological Action: Anti-spasmodic” value is reported as “✓” and the “Pharmacological Action: Anxiolytic” value is on record as “✓”. In data set [2], the “Proposed mechanism, Analgesic” value is reported as “(+)TRPA1” and the “Proposed mechanism, Anti-proliferative” value is listed as “(−)TRPM8”. In addition, in data set [2] (Antidepressant), the “Proposed mechanism, Antidepressant” value is listed as “(−)5HT1A”.
`CCCCCc1cc(O)c2c(c1)OC(C)(C)c1ccc(C)cc1-2` [CBN]: in data set [1], the “Pharmacological Action: Sedative” value was “✓” and the “Pharmacological Action: Analgesic” value is “✓”.
With `C=C(C)[C@H]1CC=C(C)CC1` [Limonene], in data set [1], the “Pharmacological Action: Antidepressant” value is on record as “✓” and the “Pharmacological Action: Anxiolytic” value is listed as “✓”.
Regarding `C=CC(C)(O)CCC=C(C)C` (stereo not drawn) [Linalool], in data set [1], the “Pharmacological Action: Anti-epileptic” value is on record as “✓”, the “Pharmacological Action: Sedative” value was “✓”, the “Pharmacological Action: Analgesic” value is “✓” and the “Pharmacological Action: Anxiolytic” value is on record as “✓”. In addition, in data set [2], the “Proposed mechanism, Anti-epileptic” value was “anti-Glu”.
Turning to `CCCc1cc(O)c2c(c1)OC(C)(C)[C@@H]1CCC(C)=C[C@@H]21` [THCV], the “Pharmacological Action: Anti-epileptic” value in data set [1] is listed as “✓”. Also, the “Proposed mechanism, Anti-epileptic” value in data set [2] is reported as “(−)CB1”.
`CCCCCc1cc(O)c2c(c1)OC(C)(C)[C@@H]1CCC(C)=C[C@@H]21` [THC]: in data set [1], the “Pharmacological Action: Anti-emetic” value was “✓”, the “Pharmacological Action: Antidepressant” value was “✓”, the “Pharmacological Action: Intestinal Anti-prokinetic” value was “✓” and the “Pharmacological Action: Anti-epileptic” value was “✓”. Further, in data set [1], the “Pharmacological Action: Vasorelaxant” value was “✓”, the “Pharmacological Action: Muscle relaxant” value is “✓”, the “Pharmacological Action: Sedative” value is “✓” and the “Pharmacological Action: Immunosuppressive” value is listed as “✓”. In data set [1], the “Pharmacological Action: Bronchodialator” value was “✓”, the “Pharmacological Action: Analgesic” value is given as “✓”, the “Pharmacological Action: Anti-spasmodic” value is given as “✓” and the “Pharmacological Action: Anti-inflammatory” value was “✓”. For the same compound, in data set [1], the “Pharmacological Action: Anxiolytic” value is “✓” and the “Pharmacological Action: Neuroprotective” value is recorded as “✓”. Further, in data set [1] (indications: Anorexia, Cachexia, AIDS wasting), the “Pharmacological Action: Appetite Stimulant” value was “✓”. For the same compound, in data set [2], the “Proposed mechanism, Anti-inflammatory” value is “(+)PPARg”; the “Proposed mechanism, Anti-proliferative” value is “(−)TRPM8”; the “Proposed mechanism, Vasorelaxant” value is on record as “(+)PPARg”. Further, in data set [2] (Appetite Stimulant), the “Proposed mechanism, Appetite Stimulant” value is “(+)PPARg”.
Turning to `CC1=CCC2CC1C2(C)C` (stereo not drawn) [a-pinene], in data set [1], the “Pharmacological Action: Bronchodialator” value is “✓” and the “Pharmacological Action: Anti-inflammatory” value is “✓”. The “Proposed mechanism, Anti-inflammatory” value in data set [2] is given as “PGE1”.
Regarding `C=C1CC/C=C(\C)CC[C@@H]2[C@@H]1CC2(C)C` [b-caryophyl.], the “Pharmacological Action: Anti-inflammatory” value in data set [1] is listed as “✓”. In addition, the “Proposed mechanism, Anti-inflammatory” value in data set [2] was “PGE1”.
`C=CC(=C)CCC=C(C)C` [b-myrcene]: in data set [1], the “Pharmacological Action: Sedative” value is “✓”, the “Pharmacological Action: Analgesic” value is “✓” and the “Pharmacological Action: Anti-inflammatory” value is recorded as “✓”. Also, the “Proposed mechanism, Anti-inflammatory” value in data set [2] was “PGE2”.
